According to the NIST ThermoML archive (doi:10.1021/je060271a):

Settings: 283.16 K, Liquid, Vibrating tube method

CCCC(=O)OCC(COC(=O)CCC)(COC(=O)CCC)COC(=O)CCC [pentaerythritol tetrabutyrate]
Settings | mass density [kg/m3]
13019 kPa | 1066.7
13044 kPa | 1066.7
13070 kPa | 1066.6
13101 kPa | 1066.6
13127 kPa | 1066.5
13208 kPa | 1066.8
13264 kPa | 1066.8
13291 kPa | 1066.8
13317 kPa | 1066.7
13343 kPa | 1066.8
13374 kPa | 1066.8
13401 kPa | 1066.8
13427 kPa | 1066.8
13460 kPa | 1066.8
13487 kPa | 1066.9
13514 kPa | 1066.9
13541 kPa | 1066.9
13574 kPa | 1066.9
13601 kPa | 1066.9
13628 kPa | 1066.9
13661 kPa | 1067
13689 kPa | 1066.9
13722 kPa | 1067.2
13750 kPa | 1067
13778 kPa | 1067
13807 kPa | 1067.1
13841 kPa | 1067
13870 kPa | 1067.1
13927 kPa | 1067.1
13962 kPa | 1067
13990 kPa | 1067.2
14025 kPa | 1067.1
14054 kPa | 1067.1
14084 kPa | 1067.2
14113 kPa | 1067.2
14149 kPa | 1067.3
14178 kPa | 1067.2
14208 kPa | 1067.2
14245 kPa | 1067.2
14275 kPa | 1067.3
14306 kPa | 1067.5
14343 kPa | 1067.3
14374 kPa | 1067.3
14405 kPa | 1067.4
14436 kPa | 1067.4
14474 kPa | 1067.4
14504 kPa | 1067.4
14536 kPa | 1067.5
14574 kPa | 1067.4
14605 kPa | 1067.5
14638 kPa | 1067.5
14677 kPa | 1067.4
14709 kPa | 1067.5
14741 kPa | 1067.6
14774 kPa | 1067.5
14814 kPa | 1067.7
14846 kPa | 1067.6
14886 kPa | 1067.6
14919 kPa | 1067.6
14952 kPa | 1067.7
14985 kPa | 1067.6
15026 kPa | 1067.6
15059 kPa | 1067.8
15094 kPa | 1067.7
15136 kPa | 1067.7
15170 kPa | 1067.7
15205 kPa | 1067.7
15246 kPa | 1067.9
15282 kPa | 1067.9
15317 kPa | 1067.9
15359 kPa | 1067.8
15394 kPa | 1067.9
15430 kPa | 1068
15473 kPa | 1067.9
15545 kPa | 1067.9
15944 kPa | 1068.3
15983 kPa | 1068.2
16022 kPa | 1068.3
16069 kPa | 1068.4
16110 kPa | 1068.4
16153 kPa | 1068.4
16192 kPa | 1068.3
16240 kPa | 1068.4
16281 kPa | 1068.3
16322 kPa | 1068.3
16363 kPa | 1068.4
16414 kPa | 1068.4
16456 kPa | 1068.5
16498 kPa | 1068.5
16547 kPa | 1068.6
16580 kPa | 1068.5
16614 kPa | 1068.6
16656 kPa | 1068.6
16691 kPa | 1068.8
16726 kPa | 1068.6
16769 kPa | 1068.7
16805 kPa | 1068.8
16839 kPa | 1068.7
16871 kPa | 1068.8
16898 kPa | 1068.8
16924 kPa | 1068.6
16956 kPa | 1068.8
16983 kPa | 1068.7
17011 kPa | 1068.9
17044 kPa | 1068.9
17074 kPa | 1068.9
17104 kPa | 1068.8
17139 kPa | 1069
17162 kPa | 1068.9
17182 kPa | 1068.8
17202 kPa | 1069
17225 kPa | 1068.9
17237 kPa | 1069
17246 kPa | 1069
17257 kPa | 1069
17266 kPa | 1069
17275 kPa | 1068.9
17284 kPa | 1068.8
17295 kPa | 1069
17304 kPa | 1068.9
17313 kPa | 1069.1
17322 kPa | 1069.1
17333 kPa | 1069.1
17342 kPa | 1069
17352 kPa | 1069
17362 kPa | 1069.1
17371 kPa | 1069
17380 kPa | 1069.1
17391 kPa | 1069.1
17400 kPa | 1069
17411 kPa | 1069
17420 kPa | 1069
17429 kPa | 1069.2
17440 kPa | 1069.1
17449 kPa | 1069.1
17458 kPa | 1069
17469 kPa | 1069.1
17478 kPa | 1069.1
17487 kPa | 1069
17498 kPa | 1069.2
17508 kPa | 1069.1
17517 kPa | 1069.1
17528 kPa | 1069.1
17538 kPa | 1069.1
17547 kPa | 1069.1
17556 kPa | 1069.2
